Measured values reported in patent publication US20250333745A1, “METHODS AND COMPOSITIONS FOR TREATMENT OF POLYCYSTIC KIDNEY DISEASE” (Regulus Therapeutics Inc., priority 2016, published 2025).

Key:
Pkd2-KO mice = test: Efficacy in the Pkd2-KO model of PKD; type: in vivo, mouse; details: for BUN (mean) / Cystic Index (mean) / KW/BW Ratio (mean) / Serum Creatinine (mean): 20 mg/kg s.c. on days 10, 11, 12, 19 of age, sacrificed at 28 days
Description: (§1) Two experimental models of PKD were used to evaluate efficacy. Pkd2-KO mice spontaneously develop polycystic kidney disease, and were used as a model of ADPKD. See Patel et al., PNAS, 2013; 110 (26): 10765-10770. Pcy mice bearing a mutation in Nphp3 spontaneously develop polycystic kidney disease, with a slower progression of disease than that observed in the Pkd2-KO mice. The Pcy model is used as a model of nephronophthisis. See Happe and Peters, Nat. Rev. Nephrol., 2014; 10:587-601.
RG4326 was tested in the Pkd2-KO mouse model of ADPKD. This model is also referred to as the PKD2-KO model. Wild-type mice were used as control mice. An oligonucleotide complementary to a miRNA unrelated to miR-17 was used as a treatment control for specificity (RG5124).
On each of days 10, 11 12, and 19 of age, sex-matched littermates of mice were administered a subcutaneous injection of RG4326 at a dose of 20 mg/kg (n=12), RG5124 at a dose of 20 mg/kg (n=12), tool anti-miR-17 at a dose of 20 mg/kg (n=12), or PBS (n=12). Mice were sacrificed at 28 days of age, and kidney weight, body weight, cyst index, serum creatinine level, and blood urea nitrogen (BUN) level were measured. BUN level is a marker of kidney function. A higher BUN level correlates with poorer kidney function, thus a reduction in BUN level is an indicator of reduced kidney injury and damage and improved function. Statistical significance was calculated by one-way ANOVA with Dunnett's multiple correction.
(§2) Cyst index is a histological measurement of cystic area relative to total kidney area. For this analysis, one kidney was perfused with cold PBS and 4% (wt/vol) paraformaldehyde and then harvested. Kidneys were fixed with 4% paraformaldehyde for 2 hours and then, embedded in paraffin for sectioning. Sagittal sections of kidneys were stained with hematoxylin and eosin (H&E). All image processing steps were automated and took place in freely available and open source software: An R1 script which used functions from the EBImage Bioconductor package2 and the ImageMagick3 suite of image processing tools. Kidney H&E images in Aperio SVS format were converted to TIFF images, and the first frame was retained for image analysis. First, the total kidney section area was calculated using image segmentation. Image segmentation was similarly used to find all internal structures including kidney cyst. A filter was applied to remove all objects less than a mean radius of three pixels. The cystic index is the image area associated with cysts divided by the total kidney areas. Cystic index was separately calculated for longitudinal and transverse kidney sections for each individual animal. Combined cystic index of individual animals were compared for each treatment groups.

Pcy mice = test: Efficacy in the Pcy model of PKD; type: in vivo, mouse; details: for BUN (mean) / Cystic Index (mean) / KW/BW Ratio (mean): 25 mg/kg s.c. for oligonucleotides, sacrificed at 15 weeks of age
Description: as §1, §2
RG4326 was tested in the Pcy mouse model. Wild-type mice were used as control group. From four weeks of age, Pcy mice were treated once per week via subcutaneous injection with RG4326 at a dose of 25 mg/kg, tool anti-miR-17 at a dose of 25 mg/kg, control oligonucleotide RG5124 at a dose of 25 mg/kg, or PBS. Each treatment group contained 15 male mice. Three treatments were administered on […] days of age, and weekly thereafter at 6, 7, 8, 9, 10, 11, 12, 13, and 14 weeks of age. Also tested was tolvaptan, a vasopressin V2-receptor antagonist (VRA) that is prescribed to some patients with polycystic kidney disease. Mice were sacrificed at 15 weeks of age. Body weight was recorded. One kidney was extracted and weighed and the other processed for histological analysis to calculate cyst index as described for the study in the Pkhd1/cre; Pkd2^F/F. Blood urea nitrogen (BUN) level and serum creatinine level were measured. Statistical significance was calculated by one-way ANOVA with Dunnett's multiple correction.

miR-17 targets = test: miR-17 PD Signature Score in IMCD3 cells (18 genes targeted by miR-17); type: cell-based, mouse; details: 24-hour transfection, relative to mock-transfection
Method: To test the ability of RG4326 to inhibit miR-17 regulation of endogenous targets, miR-17 target gene de-repression was assessed in vitro in several kidney cell types from normal and PKD mouse kidneys. Mouse kidney collecting duct cells (IMCD3) were treated with 0.3 nM, 1.2 nM, 4.7 nM, 18.8 nM, 75 nM, and 300 nM of RG4326 or a control oligonucleotide, RG5124. Additional control groups included untreated cells and mock-transfected cells (cell treated with transfection reagent only). After a 24-hour transfection period, cells were collected and RNA was extracted. The mRNA levels of 18 genes targeted by miR-17 were measured, and averaged to provide a pharmacodynamic signature score (PD Signature Score), represented as Log2 fold-change (Log2FC) relative to mock-transfection.

[1] = 20 mg/kg, not statistically significant

Compound	effect on KW/BW ratio, BUN and cyst index (in words) (Pkd2-KO mice; 20 mg/kg)	efficacy on KW/BW ratio, BUN or cyst index (in words) (Pcy mice)	BUN (mean) (Pkd2-KO mice)	Cystic Index (mean) (Pkd2-KO mice)	KW/BW Ratio (mean) (Pkd2-KO mice)	Serum Creatinine (mean) (Pkd2-KO mice)	BUN (mean) (Pcy mice)	Cystic Index (mean) (Pcy mice)	KW/BW Ratio (mean) (Pcy mice)	miR-17 PD Signature Score, Mean Log2FC (miR-17 targets; 0.3 nM)	miR-17 PD Signature Score, Mean Log2FC (miR-17 targets; 1.2 nM)	miR-17 PD Signature Score, Mean Log2FC (miR-17 targets; 4.7 nM)	miR-17 PD Signature Score, Mean Log2FC (miR-17 targets; 18.8 nM)	miR-17 PD Signature Score, Mean Log2FC (miR-17 targets; 75 nM)	miR-17 PD Signature Score, Mean Log2FC (miR-17 targets; 300 nM)	also measured
5′-CTGCACTGTAAGCACTTTG-3′ (all phosphorothioate, sugars by position and methylation of C not given here; DNA, 2'-MOE and S-cEt sugars) [Tool anti-miR-17, reference compound]	no statistically significant changes were observed	did not result in statistically significant reductions	–	–	–	–	–	–	–	–	–	–	–	–	–	–
COC1C(OP(=O)(S)OC[C@H]2O[C@@H](n3cnc4c(N)ncnc43)C(F)C2OP(=O)(S)OC[C@H]2O[C@@H](n3ccc(N)nc3=O)C(F)C2OP(=O)(S)OC[C@H]2O[C@@H](n3ccc(=O)[nH]c3=O)C(F)C2OP(=O)(S)OC[C@H]2O[C@@H](n3ccc(=O)[nH]c3=O)C(OC)C2OP(=O)(S)OC[C@]23O[C@@H](n4ccc(=O)[nH]c4=O)C(O[C@H]2C)C3OP(=O)(S)OC[C@]23O[C@@H](n4cnc5c(=O)[nH]c(N)nc54)C(O[C@H]2C)C3O)[C@@H](COP(=O)(S)OC2C3O[C@@H](C)[C@]2(COP(=O)(S)OC2C4O[C@@H](C)[C@]2(CO)O[C@H]4n2cnc4c(N)ncnc42)O[C@H]3n2cnc3c(=O)[nH]c(N)nc32)O[C@H]1n1ccc(N)nc1=O (stereo in doubt) [RG4326, ASGSCMAFCFUFUMUSGS]	–	–	72.92 mg/dL	50.3	40.98 mg/g	0.26 mg/dL	19.7	0.16	18.1	−0.075 Log2FC	−0.067 Log2FC	0.027 Log2FC	0.272 Log2FC	0.369 Log2FC	0.373 Log2FC	Mean serum creatinine levels lower than in PBS mice (Pkd2-KO mice; [1]): 18%; mean reduction in cyst index compared to PBS (Pkd2-KO mice; [1]): 12%; mean KW/BW ratio lower than in PBS mice (Pkd2-KO mice; 20 mg/kg, p=0.0099): 29%; mean KW/BW ratio lower relative to PBS-treated mice (Pcy mice; 25 mg/kg, p=0.0055): 19%; BUN reduced relative to PBS-treated mice (Pcy mice; 25 mg/kg, p=0.0070): 16%; cyst index reduced compared to PBS (Pcy mice; 25 mg/kg, p=0.016): 34%
ASCSAMAFUFGFCMASCS [RG5124, reference compound]	did not reduce kidney weight to body weight ratio, cyst index, or BUN	did not result in statistically significant reductions	86.67 mg/dL	56.67	55.35 mg/g	0.31 mg/dL	21.2	0.23	21.4	−0.083 Log2FC	−0.103 Log2FC	−0.097 Log2FC	−0.108 Log2FC	−0.124 Log2FC	−0.065 Log2FC	–
